Test results as given in patent publication US20220378707A1, “1-(((2S,3S,4S)-3-ETHYL-4-FLUORO-5-OXOPYRROLIDIN-2-YL)METHOXY)-7-METHOXYISOQUINOLINE-6-CARBOXAMIDE COMBINATIONS AND ORAL DOSAGE FORMS” (Pfizer Inc., priority 2019, published 2022).

Test system: coronary artery smooth muscle cells+(IL-1p, TNFα and IFNγ)
Assay: BioMAP CASM3C system
Type: cell-based, human
Settings: Th1 vascular smooth muscle inflammation; concentrations of FIGS. 12-14
Excerpt: The BioMAP systems consist of human primary cell-based systems designed to model different aspects of the human body in an in vitro format. The 12 systems tested characterized the test compounds across a broad set of systems modeling various human disease states. BioMAP systems were constructed with one or more primary cell types from healthy human donors, with stimuli (such as cytokines or growth factors) added to capture relevant signaling networks that naturally occur in human tissue or pathological conditions. […] Soluble factors from supernatants were quantified using either HTRF® detection, bead-based multiplex immunoassay or capture ELISA. Overt adverse effects of test agents on cell proliferation and viability (cytotoxicity) were detected by sulforhodamine B (SRB) staining, for adherent cells, and alamarBlue® reduction for cells in suspension. […] Each tested compound generated a signature BioMAP profile that was created from the changes in protein biomarker readouts within individual system environments. […] Each readout was measured quantitatively by immune-based methods that detected protein (e.g., ELISA) or functional assays that measured proliferation and viability. BioMAP readouts were diverse and included cell surface receptors, cytokines, chemokines, matrix molecules and enzymes. […]

Row | Compound | Inhibition of biomarker readouts in the CASM3C system
1 | CC[C@@H]1[C@H](F)C(=O)N[C@@H]1COc1nccc2cc(C(N)=O)c(OC)cc12 [PF-06650833, 1-(((2S,3S,4S)-3-Ethyl-4-fluoro-5-oxopyrrolidin-2-yl)methoxy)-7-methoxyisoquinoline-6-carboxamide] | IL-6
2 | C[C@@H]1CCN(C(=O)CC#N)C[C@@H]1N(C)c1ncnc2[nH]ccc12 [tofacitinib, 3-((3R,4R)-4-Methyl-3-(methyl(7H-pyrrolo[2,3-d]pyrimidin-4-yl)amino)piperidin-1-yl)-3-oxopropanenitrile] | MIG
